# Test results as given in US8815908B2, “Compounds and methods for inhibiting phosphate transport” (Ardelyx, Inc., priority 2010, dated 2014).
# How the values were obtained:
# rat NaP2b (SLC34A2) = target: T1, rat NaP2b (SLC34A2) (Rattus norvegicus, UniProt Q9JJ09); assay: Inhibition of NaP2b-mediated Pi uptake into transfected HEK293 cells (rat); format: cell-based; conditions: 33P Pi uptake, 100 uM KH2PO4, read-out: pIC50 range for rat Nap2b (converted)
# T1 construct: host or cells: HEK293
# T1 sequence (Q9JJ09 1-695): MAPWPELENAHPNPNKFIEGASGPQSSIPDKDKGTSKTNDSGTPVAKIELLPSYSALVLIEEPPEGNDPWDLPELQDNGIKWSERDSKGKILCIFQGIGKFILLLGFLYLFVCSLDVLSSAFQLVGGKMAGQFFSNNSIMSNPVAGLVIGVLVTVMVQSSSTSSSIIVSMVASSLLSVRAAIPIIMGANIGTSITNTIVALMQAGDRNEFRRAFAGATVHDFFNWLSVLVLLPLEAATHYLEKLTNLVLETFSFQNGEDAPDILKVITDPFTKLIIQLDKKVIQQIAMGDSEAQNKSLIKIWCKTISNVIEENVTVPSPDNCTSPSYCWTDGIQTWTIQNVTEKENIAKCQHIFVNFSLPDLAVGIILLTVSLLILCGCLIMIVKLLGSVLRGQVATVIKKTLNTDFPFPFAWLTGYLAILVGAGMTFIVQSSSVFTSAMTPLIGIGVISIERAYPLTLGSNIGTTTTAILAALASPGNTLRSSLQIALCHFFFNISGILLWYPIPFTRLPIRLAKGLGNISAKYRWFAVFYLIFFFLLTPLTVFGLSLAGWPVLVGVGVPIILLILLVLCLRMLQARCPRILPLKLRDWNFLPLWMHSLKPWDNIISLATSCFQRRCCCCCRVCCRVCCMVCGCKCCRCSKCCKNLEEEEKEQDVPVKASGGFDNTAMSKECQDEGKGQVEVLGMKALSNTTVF
# Description: (§1) HEK293 cells were obtained from the American Type Culture collection and propagated per their instructions. Expression clones for rat and human NaP2b (SLC34A2) were obtained from Open Biosystems (Catalog numbers MRN1768-9510282, and MHS1010-99823026, respectively). The sequence of the human protein was mutated to insert a threonine after residue 37, and to introduce a N39D mutation.
# (§2) The rate of phosphate (Pi) uptake into HEK293 cells was measured using a modification of the method described by Mohrmann et al. (Mohrmann, I., Mohrmann, M., Biber, J., and Murer, H. (1986) Am. J. Phys. 250(3 Pt 1):G323-30.) Transfected HEK293 cells were treated with a pharmacological agent to minimize endogenous PiT-mediated phosphate transport activity, such that the only remaining sodium-dependent phosphate transport activity is that which was bestowed by introduction of the NaP2b genes.
# Cells were seeded into 96-well plates at 25,000 cells/well and cultured overnight. Lipofectamine 2000 (Invitrogen) was used to introduce the NaP2b cDNA, and the cells were allowed to approach confluence during a second overnight incubation. […] Cells were then overlayed with either choline uptake buffer or sodium uptake buffer (14 mM Tris, 137 mM sodium chloride, 5.4 mM KCl, 2.8 mM CaCl2, 1.2 mM MgSO4, 100 uM KH2PO4, PiT-silencing agent, 1 mg/mL Bovine Serum Albumin, pH 7.4) containing 6-9 uCi/mL ^33P orthophosphoric acid (Perkin Elmer) and test compound. Each compound was tested at twelve concentrations ranging from 0.1 nM to 30 uM. Assays were run in duplicate.
# (§3) After incubation for 3-30 minutes at room temperature, assay mixtures were removed, and the cells were washed twice with ice cold stop solution (137 mM sodium chloride, 14 mM Tris, pH 7.4). Cells were lysed by addition of 20 μL 0.1% Tween 80 followed by 100 μL scintillation fluid, and counted using a TopCount (Perkin Elmer).
# (§4) pIC50 (the negative log of the IC50) values of the test compounds were calculated using GraphPad Prism.
# human NaP2b (SLC34A2) = target: T2, human NaP2b (SLC34A2) (Homo sapiens, UniProt O95436); assay: Inhibition of NaP2b-mediated Pi uptake into transfected HEK293 cells (human); format: cell-based; conditions: 33P Pi uptake, 100 uM KH2PO4, human protein with Thr inserted after residue 37 and N39D, read-out: pIC50 range for human (converted)
# T2 construct: host or cells: HEK293
# T2 sequence (O95436 1-690): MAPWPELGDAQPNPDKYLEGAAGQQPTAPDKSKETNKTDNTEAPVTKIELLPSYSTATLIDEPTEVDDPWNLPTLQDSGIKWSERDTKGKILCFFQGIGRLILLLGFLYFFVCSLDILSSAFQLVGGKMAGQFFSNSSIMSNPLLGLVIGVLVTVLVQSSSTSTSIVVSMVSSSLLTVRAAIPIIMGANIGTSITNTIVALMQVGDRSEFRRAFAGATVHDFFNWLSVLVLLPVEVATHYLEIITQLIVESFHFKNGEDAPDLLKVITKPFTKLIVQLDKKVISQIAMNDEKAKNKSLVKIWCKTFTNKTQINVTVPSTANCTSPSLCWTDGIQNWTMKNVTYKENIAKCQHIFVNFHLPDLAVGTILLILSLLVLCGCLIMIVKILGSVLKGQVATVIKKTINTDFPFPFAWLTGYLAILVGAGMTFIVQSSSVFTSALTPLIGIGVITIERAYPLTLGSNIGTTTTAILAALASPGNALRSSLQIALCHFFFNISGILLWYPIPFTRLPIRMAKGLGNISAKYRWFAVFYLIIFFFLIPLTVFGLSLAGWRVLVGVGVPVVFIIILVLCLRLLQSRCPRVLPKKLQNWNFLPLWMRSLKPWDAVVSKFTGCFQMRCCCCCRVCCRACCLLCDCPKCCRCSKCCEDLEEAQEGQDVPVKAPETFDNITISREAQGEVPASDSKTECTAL
# Description: as §1, §2
# Cells were seeded into 96-well plates at 25,000 cells/well and cultured overnight. […]
# as §3, §4
# NaPi2b = assay: Competition with phosphate: Pi uptake assay repeated at 2.1 vs 0.1 mM phosphate; format: cell-based; conditions: potency at 2.1 vs 0.1 mM phosphate
# Description: To ascertain if an inhibitor was competitive for binding with phosphate, the procedure was repeated, but raising the concentration of the substrate in the assay mixture from 0.1 to 2.1 mM phosphate.
# [1] = test system: uptake of phosphorus from the intestine; assay: In vivo evaluation, co-dosing in chow: inhibition of uptake of phosphorus from the intestine; parameters: species or system Sprague-Dawley rats; conditions: rat, compound in chow, mean drug dose 115 mg/kg/day, versus control group
# Source text: Male, 7-week-old Sprague-Dawley rats (Charles-River laboratories international, Hollister, Calif.) were allowed to acclimate for a minimum of 3 days. The experiment was initiated by switching animals to a synthetic diet (0.6% phosphorus and 0.6% calcium, Harlan Teklad TD.84122) for four days. After this time, the animals were placed into metabolic cages for daily monitoring of food and water consumption, as well as urine and fecal collections. Test compounds were incorporated into the powdered diet listed above containing 3% chocolate flavoring (w/w, BioServ #7345) at 1.3 mg test compound per gram of diet to achieve an average daily nominal dose of 100 mg/kg/day. The actual dose received by each animal was later determined by measuring prepared diet consumption and body weight. Urine samples were collected in three daily periods from 24-48, 48-72, and 72-96 hours of drug dosing. […] Phosphorus levels in the urine were determined by anion exchange chromatography using a Dionex ICS-3000 ion chromatography system. […] Elution of urine phosphate ions was monitored via conductivity detector and reported as ppm relative to a standard ion solution containing phosphate. Daily urinary P output relative to the P consumed in the prepared diet for each animal was calculated. […] The differences between the means of control and treated groups were evaluated by t tests.
# [2] = Determination of compound Cmax and AUC after oral gavage; format: in vivo, Sprague-Dawley rats; conditions: Sprague-Dawley, rat plasma; for AUC: blood at 0.5-4 h
# Description: Blood samples were processed to plasma using K2EDTA as an anticoaglulant. Plasma samples were treated with acetonitrile containing an internal standard, precipitated proteins removed by centrifugation. Supernatants were analyzed by LC-MS/MS and compound concentrations were determined by interpolated from a standard curve prepared in plasma. All compounds were orally dosed at the dosage shown, and pharmacokinetic parameters determined.
# [3] = Fecal recovery of orally administered compounds; format: in vivo, Sprague-Dawley rats; conditions: rat, oral gavage, feces collected until 48 hr after dosing; same animals as Example 6
# Description: The animals were kept in metabolic cages and feces were collected from the time of dosing until 48 hr after dosing. Upon collection, feces was dried by lyophilization and ground to a visually homogenous powder. Duplicate samples of ground feces from each individual animal were weighed out and extracted using organic solvent. Extracted samples were then diluted into mobile phase and test compound levels were quantitatively determined by LC-MS/MS analysis as described in Example 6 except that the standard curve was prepared in a feces matrix.
IC50 (rat NaP2b (SLC34A2)) [nM],"Cmax ([2]; actual oral dose 7.5 mg/kg, LLOQ 10 ng/mL) [ng/mL]",AUC ([2]; actual oral dose 7.5 mg/kg) [ng·h/mL],Compound,IC50 (human NaP2b (SLC34A2)) [nM],Competitive with respect to Pi? (NaPi2b),Mean % inhibition Urine Pout/P consumed [1] [%],"Cmax ([2]; actual oral dose 11 mg/kg, LLOQ 0.5 ng/mL) [ng/mL]",AUC ([2]; actual oral dose 11 mg/kg) [ng·h/mL],% recovered in feces [3] [%]
2000 to 25100,–,–,"COCCNC(=O)c1cccc(SCc2cccc(C(=O)Nc3ccc(N4CCCCC4)cc3C(=O)c3cc4ccc(C(F)(F)F)cc4[nH]3)c2)c1 [Example 3, N-(2-Methoxyethyl)-3-(3-(4-(piperidin-1-yl)-2-(6-(trifluoromethyl)-1H-indole-2-carbonyl)phenylcarbamoyl)benzylthio)benzamide]",–,–,–,–,–,–
1000 to 7940,299,433,"O=C(O)CCSCc1cccc(C(=O)Nc2ccc(N3CCCCC3)cc2C(=O)c2cc3ccc(C(F)(F)F)cc3[nH]2)c1 [Example 1, 3-(3-((4-(Piperidin-1-yl)-2-(6-(trifluoromethyl)-1H-indole-2-carbonyl)phenyl)carbamoyl)benzylthio)propanoic acid]",1000 to 7940,–,–,–,–,34

Compound,IC50 (rat NaP2b (SLC34A2)) [nM],"Cmax ([2]; actual oral dose 7.5 mg/kg, LLOQ 10 ng/mL) [ng/mL]",AUC ([2]; actual oral dose 7.5 mg/kg) [ng·h/mL],IC50 (human NaP2b (SLC34A2)) [nM],Competitive with respect to Pi? (NaPi2b),Mean % inhibition Urine Pout/P consumed [1] [%],"Cmax ([2]; actual oral dose 11 mg/kg, LLOQ 0.5 ng/mL) [ng/mL]",AUC ([2]; actual oral dose 11 mg/kg) [ng·h/mL],% recovered in feces [3] [%]
"CN(CCN1CCOCC1)C(=O)c1cccc(C(=O)Nc2ccc(N3CCCCC3)cc2C(=O)c2cc3ccc(C(F)(F)F)cc3[nH]2)c1 [Example 2, N1-Methyl-N1-(2-morpholinoethyl)-N3-(4-(piperidin-1-yl)-2-(6-(trifluoromethyl)-1H-indole-2-carbonyl)phenyl)isophthalamide 2,2,2-trifluoroacetate]",< 1000,–,–,< 1000,No,20,91,< 97,2.9
